Structures can show the parent of a compound that is named as a salt. Where two headings read alike, the source gives them in different places.
How the values were obtained:
[1] = molecular target: IMP-1 (Serratia marcescens, UniProt P52699); assay: biochemical; assay type: biochemical; conditions: fluorescence assay, CCF2-FA substrate, 2 pM enzyme, 2 hours at 25° C., read-out: IMP-1 IC50
Procedure, shortened: (§1)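 Two-hour, 25° C incubation of enzyme with inhibitor and CCF2-FA (7-hydroxycoumarin–cephalosporin–fluorescein). Fluorescence read-out; IC50 via 4-parameter fit.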

[2] = molecular target: NDM-1 (Klebsiella pneumoniae, UniProt C7C422); assay: biochemical; assay type: biochemical; conditions: fluorescence assay, CCF2-FA substrate, 1 pM enzyme, 2 hours at 25° C., read-out: NDM-1 IC50
Chain of NDM-1 (C7C422 whole entry, looked up, species assumed): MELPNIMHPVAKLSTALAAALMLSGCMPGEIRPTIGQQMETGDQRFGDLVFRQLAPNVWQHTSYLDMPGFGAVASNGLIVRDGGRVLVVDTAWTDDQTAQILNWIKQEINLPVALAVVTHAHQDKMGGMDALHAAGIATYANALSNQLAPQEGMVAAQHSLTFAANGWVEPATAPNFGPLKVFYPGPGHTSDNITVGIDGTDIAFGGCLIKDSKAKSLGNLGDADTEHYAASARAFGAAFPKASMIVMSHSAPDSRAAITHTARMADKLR
Procedure, shortened: as §1

[3] = molecular target: VIM-1 (Pseudomonas aeruginosa (strain ATCC 15692 / DSM 22644 / CIP 104116 / JCM 14847 / LMG 12228 / 1C / PRS 101 / PAO1), UniProt A0A0F7KYQ8); assay: biochemical; conditions: CCF2-FA substrate, 30 pM enzyme, 2 hours at 25° C.
Procedure, shortened: as §1

[4] = system: Escherichia coli expressing NDM-1 (CLB30005, CLB30016); assay type: cell-based; conditions: with imipenem 1 μg/ml; for Escherichia coli MITC95: NDM-1 strain, 95% inhibition of growth; for Escherichia coli expressing NDM-1 (CLB30016) MITC95: 95% inhibition of bacterial growth
Procedure, shortened: (§2)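 Imipenem 1 μg/ml + inhibitor; MBL-expressing clinical strains in 1.1×CAMHB, inoculum from saline suspension diluted 1:100; 35° C, 22–24 h; absorbance read-out.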

[5] = system: Klebsiella pneumoniae expressing VIM-1 (IHMA599644); assay type: cell-based; conditions: for Klebsiella pneumoniae MITC95: VIM-1 strain IHMA599644, with imipenem 1 μg/ml, 95% inhibition of growth; for Klebsiella pneumoniae expressing VIM-1 (IHMA599644) MITC95: with imipenem 1 μg/ml, 95% inhibition of bacterial growth
Procedure, shortened: as §2

[6] = system: Serratia marcescens expressing IMP-1 (CL5741); assay type: cell-based; conditions: for Serratia marcescens MITC95: IMP-1 strain CL5741, with imipenem 1 μg/ml, 95% inhibition of growth; for Serratia marcescens expressing IMP-1 (CL5741) MITC95: with imipenem 1 μg/ml, 95% inhibition of bacterial growth
Procedure, shortened: as §2

[7] = system: Pseudomonas aeruginosa efflux+ (MB9798), IMP-1; assay type: cell-based; design: Concentration of metallo-β-lactamase inhibitor which restores susceptibility of efflux + (MB9798) strain to imipenem: unit not given here; conditions: C, D serine β-lactamase inhibitor closely related to relebactam; for P. aeruginosa expressing IMP-1, efflux + (MB9798) MITC95: concentration restoring susceptibility to imipenem at 2 μg/mL in the presence of a class A
Procedure, shortened: (§3)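 P. aeruginosa PAO1-derived IMP-1 strains, efflux+ MB9798 and efflux− MB9799, tested by standard microbroth MIC with imipenem and/or ceftazidime fixed, usually at CLSI breakpoint, plus fixed class A/C β-lactamase inhibitor against AmpC. Inhibitor titrated; concentration restoring susceptibility recorded; MB9798/MB9799 fold difference indicates efflux.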

[8] = system: Pseudomonas aeruginosa efflux− (MB9799), IMP-1; assay type: cell-based; conditions: C, D serine β-lactamase inhibitor closely related to relebactam; for P. aeruginosa expressing IMP-1, efflux − (MB9799) MITC95: concentration restoring susceptibility to imipenem at 2 μg/mL in the presence of a class A
Procedure, shortened: as §3

[9] = system: Pseudomonas aeruginosa MB9798 vs MB9799
Procedure, shortened: as §3

[10] = ratio MITC95 PA_9798/MITC95 PA_9799
[11] = fluorescence assay, read-out: VIM-1 IC50

Chain of IMP-1 (P52699 whole entry, looked up, species assumed): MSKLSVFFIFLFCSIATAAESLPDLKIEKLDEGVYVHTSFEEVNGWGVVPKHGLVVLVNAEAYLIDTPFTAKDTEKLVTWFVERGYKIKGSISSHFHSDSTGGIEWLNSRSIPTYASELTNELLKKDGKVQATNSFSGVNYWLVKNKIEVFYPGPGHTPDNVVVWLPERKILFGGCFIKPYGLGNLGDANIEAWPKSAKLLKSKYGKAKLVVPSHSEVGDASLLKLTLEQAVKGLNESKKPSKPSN

NCc1nc2c(-c3ccc(S(=O)(=O)N[C@@H](CN)CO)c(S(N)(=O)=O)c3-c3nn[nH]n3)cccc2[nH]1 [Example 379, (S)—N^1-(1-amino-3-hydroxypropan-2-yl)-4-(2-(aminomethyl)-1H-benzo[d]imidazol-4-yl)-3-(2H-tetrazol-5-yl)benzene-1,2-disulfonamide]
IC50 [1]: 0.626 nM | IC50 [2]: 0.0956 nM | IC50 ([3]; VIM-1 IC50, fluorescence assay): 0.135 nM | Escherichia coli MITC95 [4]: 1.563 µM | Klebsiella pneumoniae MITC95 [5]: 1.563 µM | Serratia marcescens MITC95 [6]: 1.563 µM | P. aeruginosa expressing IMP-1, efflux + (MB9798) MITC95 [7]: 1.563 µM | P. aeruginosa expressing IMP-1, efflux − (MB9799) MITC95 [8]: 0.7813 µM | Efflux ratio [9, 10]: 2.00

Nc1nc2c(-c3ccc(S(=O)(=O)N[C@H]4CN[C@@H](C(=O)O)C4)c(S(N)(=O)=O)c3-c3nnn[nH]3)cccc2s1 [Example 82, (4R)-4-({[4-(2-amino-1,3-benzothiazol-4-yl)-2-sulfamoyl-3-(1H-tetrazol-5-yl)phenyl]sulfonyl}amino)-D-proline]
IC50 [1]: 0.206 nM | IC50 [2]: 0.0493 nM | IC50 ([3]; VIM-1 IC50, fluorescence assay): 0.197 nM | Escherichia coli expressing NDM-1 (CLB30016) MITC95 [4]: 6.25 µM | Klebsiella pneumoniae expressing VIM-1 (IHMA599644) MITC95 [5]: 12.5 µM | Serratia marcescens expressing IMP-1 (CL5741) MITC95 [6]: 12.5 µM | P. aeruginosa expressing IMP-1, efflux + (MB9798) MITC95 [7]: 3.125 µM | P. aeruginosa expressing IMP-1, efflux − (MB9799) MITC95 [8]: 6.25 µM | Efflux ratio [9, 10]: 0.50

Nc1nc2c(-c3ccc(S(=O)(=O)N4CCC(F)(F)C4)c(S(N)(=O)=O)c3-c3nnn[nH]3)cccc2s1 [Example 43, 3-(2-amino-1,3-benzothiazol-4-yl)-6-[(3,3-difluoropyrrolidin-1-yl)sulfonyl]-2-(1H-tetrazol-5-yl)benzenesulfonamide]
IC50 [1]: 1.23 nM | IC50 [2]: 2.07 nM | IC50 [3, 11]: 1.86 nM | Escherichia coli expressing NDM-1 (CLB30016) MITC95 [4]: 25 µM | Klebsiella pneumoniae expressing VIM-1 (IHMA599644) MITC95 [5]: 100 µM | Serratia marcescens expressing IMP-1 (CL5741) MITC95 [6]: 6.25 µM | P. aeruginosa expressing IMP-1, efflux + (MB9798) MITC95 [7]: 100 µM | P. aeruginosa expressing IMP-1, efflux − (MB9799) MITC95 [8]: 1.563 µM | Efflux ratio [9, 10]: 63.98

CN1CCOC(CNS(=O)(=O)c2ccc(-c3cccc4sc(N)nc34)c(-c3nnn[nH]3)c2S(N)(=O)=O)C1 (stereo not drawn) [Example 17, 4-(2-amino-1,3-benzothiazol-4-yl)-N1-[(4-methylmorpholin-2-yl)methyl]-3-(1H-tetrazol-5-yl)benzene-1,2-disulfonamide]
IC50 [1]: 0.43 nM | IC50 [2]: 0.0889 nM | IC50 [3, 11]: 0.41 nM | Escherichia coli expressing NDM-1 (CLB30016) MITC95 [4]: 12.5 µM | Klebsiella pneumoniae expressing VIM-1 (IHMA599644) MITC95 [5]: 12.5 µM | Serratia marcescens expressing IMP-1 (CL5741) MITC95 [6]: 6.25 µM | P. aeruginosa expressing IMP-1, efflux + (MB9798) MITC95 [7]: 12.5 µM | P. aeruginosa expressing IMP-1, efflux − (MB9799) MITC95 [8]: 6.25 µM | Efflux ratio [9, 10]: 2.00

NCc1nc2c(-c3ccc(S(=O)(=O)N[C@@H]4CCNC4)c(S(N)(=O)=O)c3-c3nn[nH]n3)cccc2[nH]1 [Example 283, (R)-4-(2-(aminomethyl)-1H-benzo[d]imidazol-4-yl)-N1-(pyrrolidin-3-yl)-3-(2H-tetrazol-5-yl)benzene-1,2-disulfonamide]
IC50 [1]: 1.2 nM | IC50 [2]: 0.0721 nM | IC50 [3, 11]: 0.124 nM | Escherichia coli MITC95 [4]: 0.7813 µM | Klebsiella pneumoniae MITC95 [5]: 1.172 µM | Serratia marcescens MITC95 [6]: 0.6836 µM | P. aeruginosa expressing IMP-1, efflux + (MB9798) MITC95 [7]: 0.7813 µM | P. aeruginosa expressing IMP-1, efflux − (MB9799) MITC95 [8]: 0.7813 µM | Efflux ratio [9, 10]: 1.00

NC[C@@]1(NS(=O)(=O)c2ccc(-c3ccc(N)nc3)c(-c3nn[nH]n3)c2S(N)(=O)=O)CCNC1 [Example 487, (S)-N1-(3-(aminomethyl)pyrrolidin-3-yl)-4-(6-aminopyridin-3-yl)-3-(2H-tetrazol-5-yl)benzene-1,2-disulfonamide dihydrochloride]
IC50 ([1]; dihydrochloride): 0.803 nM | IC50 ([2]; dihydrochloride): 0.274 nM | IC50 ([3]; VIM-1 IC50, fluorescence assay): 0.527 nM | Escherichia coli MITC95 ([4]; dihydrochloride): 0.3906 µM | Klebsiella pneumoniae MITC95 [5]: 1.563 µM | Serratia marcescens MITC95 [6]: 0.7813 µM | Concentration of metallo-β-lactamase inhibitor which restores susceptibility of efflux + (MB9798) strain to imipenem ([7]; efflux+ MB9798, imipenem at 2 μg/mL, in the presence of a class A): 1.563 | Concentration of metallo-β-lactamase inhibitor which restores susceptibility of efflux − (MB9799) strain to imipenem ([8]; efflux− MB9799, imipenem at 2 μg/mL, in the presence of a class A, dihydrochloride): 1.563 | Efflux ratio ([9]; fold difference between efflux+ (MB9798) and efflux− (MB9799) strains, imipenem at 2 μg/mL, dihydrochloride): 1.00

CN1CC[C@@H](NS(=O)(=O)c2ccc(-c3cccc4[nH]c(N)nc34)c(-c3nn[nH]n3)c2S(N)(=O)=O)C1 [Example 232, (R)-4-(2-amino-1H-benzo[d]imidazol-4-yl)-N^1-(1-methylpyrrolidin-3-yl)-3-(2H-tetrazol-5-yl)benzene-1,2-disulfonamide]
IC50 [1]: 0.609 nM | IC50 [2]: 0.0505 nM | IC50 ([3]; VIM-1 IC50, fluorescence assay): 0.16 nM | Escherichia coli expressing NDM-1 (CLB30016) MITC95 [4]: 0.3906 µM | Klebsiella pneumoniae expressing VIM-1 (IHMA599644) MITC95 [5]: 1.563 µM | Serratia marcescens expressing IMP-1 (CL5741) MITC95 [6]: 0.7813 µM | P. aeruginosa expressing IMP-1, efflux + (MB9798) MITC95 [7]: 1.563 µM | P. aeruginosa expressing IMP-1, efflux − (MB9799) MITC95 [8]: 0.7813 µM | Efflux ratio [9, 10]: 2.00

Nc1nc2c(-c3ccc(S(=O)(=O)NC[C@@H](N)C(=O)O)c(S(N)(=O)=O)c3-c3nn[nH]n3)cccc2s1 [Example 154, (R)-2-amino-3-((4-(2-aminobenzo[d]thiazol-4-yl)-2-sulfamoyl-3-(2H-tetrazol-5-yl)phenyl)sulfonamido)propanoic acid]
IC50 [1]: 0.155 nM | IC50 [2]: 0.067 nM | IC50 [3, 11]: 0.28 nM | Escherichia coli expressing NDM-1 (CLB30016) MITC95 [4]: 50 µM | Klebsiella pneumoniae expressing VIM-1 (IHMA599644) MITC95 [5]: 25 µM | Serratia marcescens expressing IMP-1 (CL5741) MITC95 [6]: 6.25 µM | P. aeruginosa expressing IMP-1, efflux + (MB9798) MITC95 [7]: 3.125 µM | P. aeruginosa expressing IMP-1, efflux − (MB9799) MITC95 [8]: 6.25 µM | Efflux ratio [9, 10]: 0.50

Nc1nc(-c2cccc(-c3ccc(S(=O)(=O)N[C@@H]4CCNC4)c(S(N)(=O)=O)c3-c3nn[nH]n3)c2)n[nH]1 [Example 231, (R)-3′-(5-amino-1H-1,2,4-triazol-3-yl)-N4-(pyrrolidin-3-yl)-2-(2H-tetrazol-5-yl)-[1,1′-biphenyl]-3,4-disulfonamide]
IC50 [1]: 0.376 nM | IC50 [2]: 0.0288 nM | IC50 [3, 11]: 0.115 nM | Escherichia coli expressing NDM-1 (CLB30016) MITC95 [4]: 1.563 µM | Klebsiella pneumoniae expressing VIM-1 (IHMA599644) MITC95 [5]: 3.125 µM | Serratia marcescens expressing IMP-1 (CL5741) MITC95 [6]: 1.563 µM | P. aeruginosa expressing IMP-1, efflux + (MB9798) MITC95 [7]: 1.563 µM | P. aeruginosa expressing IMP-1, efflux − (MB9799) MITC95 [8]: 1.563 µM | Efflux ratio [9, 10]: 1.00
